Experimental data as given in patent publication US20250381129A1, “ANTI-AGING SKIN CARE COMPOSITION” (L'OREAL, priority 2024, published 2025).

How the values were obtained:
Conditions in all cases: topical, 5 consecutive days, HPR 0.01%, LA 3%, Eperuline 1% or 3%
[1] = tested on: CSC-stimulated human ex-vivo skin; experiment: H&E histological analysis of CSC-stimulated human ex-vivo skin
Description: (§1) Human ex-vivo skin was cultured with or without CSC and topically treated with either HPR, HPR-LA, HPR-Eperuline and HPR-LA-Eperuline for 5 days consecutive days (See FIG. 2B; See Table 4 for concentrations).
Fresh human ex-vivo skin was obtained through donor informed consent following abdominoplasty procedures. The tissues were obtained through BioIVT (Westbury, NY, USA) following an approved IRB protocol and shipped to a BSC level 2 research laboratory within 24 h after the procedure where the experiments took place. All experiments were performed in accordance with relevant guidelines and regulations. Donors included a person, person and person. Ex vivo tissues were prepared by excising the subcutaneous fat followed by punch biopsies with disposable 12 mm Skin Biopsy Punch (Fisher Scientific, NC9253254) and placed in 24-well transwell plates with permeable polyester membrane inserts (Fisher Scientific, 07-200-161). At least three biopsies were used for each condition.
Skin tissues were divided into groups of three and placed in the 24-well transwell plates, […] (Cell stimulation cocktail 500×(50-930-5)) was diluted to a 2× concentration in culture media and 650 uL was added to the well on the first day. […]

[2] = tested on: IL-1A; experiment: Quantification of secreted IL-1A in culture supernatant of CSC-stimulated human ex-vivo skin (ProcartaPlex/Luminex)
Description: as §1
(§2) Skin tissues were divided into groups of three and placed in the 24-well transwell plates, […] (Cell stimulation cocktail 500×(50-930-5)) was diluted to a 2× concentration in culture media and 650 uL was added to the well on the first day. Topical treatments were undertaken daily by pipetting 5 uL of treatments onto the tissue and using a Q-tip, spreading treatments across the tissue and left to absorb at room temperature for 30 minutes. Base media without stimulants served as the control group. Tissues were replenished with fresh media with the stimulant on day 1 and 3. On days 1, 3 and 5, supernatant from the culture was collected and aliquoted, and the tissues were bisected and fixed in 10% neutral buffered formalin (Fisher Scientific 22-126-347) for 3 h and then switched to 70% ethanol for storage until histology.
(§3) Tissue culture supernatant was collected at the end of the cultures to evaluate the secretion of several cytokines, chemokines, and growth factors. […]
(§4) Data were assessed using a two-way ANOVA with multiple comparison test. […]

[3] = tested on: IL-23; experiment: Quantification of secreted IL-23 in culture supernatant of CSC-stimulated human ex-vivo skin (ProcartaPlex/Luminex)
Description: as §1, §2, §3, §4

## CC1=C(/C=C/C(C)=C/C=C/C(C)=C/C(=O)OCC(=O)C(C)(C)C)C(C)(C)CCC1 [HPR, hydroxypinacolone retinoate]
[1]
  histological signs of inflammation (epidermal spongiosis, immune infiltration): exacerbated
[2]
  secreted IL-1A: significant increase
[3]
  secreted IL-23: significant increase
